Results published in ChEMBL document CHEMBL1201862, “PubChem BioAssay data set” (2004).
Activity calls are given as the source filed them.

Experiments:
[1] = toxicity to human hepatoma HepG2 cells – cell-based, cherry-picked samples, cytotoxicity control, dose response (AID 1159577); type: functional
[2] = P. falciparum Dd2 growth inhibitors, dose response, SYBR Green, cherry-picked samples (AID 1159567); type: functional, cell-based
Cytochrome P450 2C19 = Cytochrome P450 2C19 (Homo sapiens, UniProt P33261); assay: qHTS Assay for Inhibitors and Substrates of Cytochrome P450 2C19. [Related pubchem assays: 410 ]; type: ADME; conditions: read-out: Potency
Caspase-6 = Caspase-6 (Homo sapiens, UniProt P55212); assay: inhibition of CASP6 peptide cleavage – biochemical, VEID-R110 fluorescence, cherry-pick, dose response (AID 720632)
[3] = biological target: Solute carrier family 12 member 2/member 5 (Homo sapiens, UniProt P55011+Q9H2X9); assay: KCC2 and NKCC1 inhibition by rubidium flux, cell-based, NKCC1 counter-screen (AID 1734); type: functional, HEK293
[4] = biological target: T1, Corticotropin-releasing factor receptor 2/Corticotropin-releasing factor-binding protein (Homo sapiens, UniProt P24387+Q13324); assay: activators of CRF receptor 2 with binding protein – uHTS hits, confirmation (AID 602473); type: functional; conditions: read-out: EC50_Mean
T1 sequence (Q13324 whole entry): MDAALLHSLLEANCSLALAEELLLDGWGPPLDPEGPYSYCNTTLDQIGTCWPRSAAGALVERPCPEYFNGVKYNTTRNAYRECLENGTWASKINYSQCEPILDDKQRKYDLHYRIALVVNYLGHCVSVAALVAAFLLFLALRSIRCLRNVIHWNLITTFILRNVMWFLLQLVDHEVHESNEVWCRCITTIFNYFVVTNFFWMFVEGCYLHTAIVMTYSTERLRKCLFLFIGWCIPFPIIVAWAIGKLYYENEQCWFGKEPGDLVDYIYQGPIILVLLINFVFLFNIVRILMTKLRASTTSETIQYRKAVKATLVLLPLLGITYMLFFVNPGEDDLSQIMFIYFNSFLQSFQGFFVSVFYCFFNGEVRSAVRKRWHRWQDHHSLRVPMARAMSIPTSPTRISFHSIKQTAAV
T1 sequence (P24387 whole entry): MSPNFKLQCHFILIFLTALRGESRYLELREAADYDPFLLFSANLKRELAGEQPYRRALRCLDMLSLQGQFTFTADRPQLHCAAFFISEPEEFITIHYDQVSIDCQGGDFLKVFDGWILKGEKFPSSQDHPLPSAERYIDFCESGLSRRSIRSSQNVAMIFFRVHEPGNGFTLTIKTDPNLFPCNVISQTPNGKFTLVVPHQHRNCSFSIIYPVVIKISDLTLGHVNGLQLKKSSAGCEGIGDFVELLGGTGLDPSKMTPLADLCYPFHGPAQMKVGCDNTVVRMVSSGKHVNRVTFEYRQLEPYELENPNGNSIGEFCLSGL

[5] = biological target: T1, Corticotropin-releasing factor receptor 2/Corticotropin-releasing factor-binding protein; assay: Dose Response confirmation of uHTS hits for small molecule antagonists of the CRF-binding protein and CRF-R2 receptor complex.; type: functional; conditions: read-out: IC50_Mean
[6] = biological target: Melanin-concentrating hormone receptor 1 (Homo sapiens, UniProt Q99705); assay: Fluorescence-based counterscreen for antagonists of the G-protein coupled receptor 7 (GPR7): cell-based high throughput dose response assay to identify antagonists of the melanin-concentrating hormone receptor 1 (MCHR1).; type: functional
[7] = biological target: Neuropeptides B/W receptor type 1 (Homo sapiens, UniProt P48145); assay: Fluorescence-based dose response cell-based high throughput screening assay to identify antagonists of the G-protein coupled receptor 7 (GPR7). [Related pubchem assays: 1952 (Screening assay (GPR7 antagonists).), 1880 (Summary AID.)]; type: functional
[8] = biological target: G-protein coupled receptor 183 (Homo sapiens, UniProt P32249); assay: SAR confirmation of small molecule antagonists of the EBI2 receptor via a luminescent beta-arrestin assa.; type: functional
Prothrombin = Prothrombin (Homo sapiens, UniProt P00734); assay: Thrombin 1536 HTS Dose Response Confirmation. [Related pubchem assays: 1046 (Thrombin 1536 HTS; hits were confirmed in this assay)]; type: functional
Vero [9] = assay: Vero 76 cell viability after compound exposure – Vero 76 cells, synthesized analogs, cytotoxicity control for West Nile virus antiviral project, SAR follow-up (AID 2414); type: functional; conditions: Chlorocebus sabaeus
Vero [10] = assay: Vero cell viability after compound exposure – synthesized analogs, set II, cytotoxicity control for West Nile virus antiviral project, SAR follow-up (AID 2402); type: functional; conditions: Chlorocebus sabaeus
[11] = cytotoxicity in MITF-independent A375 cells – cell-based, CellTiter-Glo luminescence, dry powder, set 4, counter-screen for MITF inhibitor project, dose response (AID 624364); type: functional; conditions: A-375;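 further: A375 melanoma cells are MITF independent so this is a counter screen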
[12] = viability loss in MITF-independent A375 cells – cell-based, CellTiter-Glo luminescence, dry powder, set 2, counter-screen for MITF inhibitor project, dose response (AID 624489); type: functional; conditions: A-375;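 further: actives are compounds lowering A375 viability meaning general cytotoxicity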
[13] = IC50 of Artemis nuclease activity blockers – biochemical, fluorescence intensity, dose response (AID 720701); type: functional;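 further: Artemis endonuclease enzyme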
[14] = HIV-1 Vif–A3G interaction blockers – biochemical, TR-FRET, GST-Vif 1-94, biotin-A3G peptide, dose response retest, primary screen (AID 1117319); type: functional;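 further: TR-FRET signal of purified GST-Vif binding a biotinylated A3G peptide; inhibitors lower the FRET signal by blocking Vif and A3G binding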
Protein Tat = biological target: T2, Protein Tat (Human immunodeficiency virus type 1 group M subtype B (isolate HXB2)(HIV-1), UniProt P04608); type: functional;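 further: tat binding to TAR RNA read out by fluorescence polarization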
T2 sequence (P04608 whole entry): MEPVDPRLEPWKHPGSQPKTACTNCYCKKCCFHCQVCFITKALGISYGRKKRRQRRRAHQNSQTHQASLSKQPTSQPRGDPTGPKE

[15] = viability loss in Vero cells – cytotoxicity control for Vif-APOBEC3G degradation inhibitor project, dose response (AID 1117358); type: functional; conditions: Vero

Chain of Melanin-concentrating hormone receptor 1 (Q99705 whole entry): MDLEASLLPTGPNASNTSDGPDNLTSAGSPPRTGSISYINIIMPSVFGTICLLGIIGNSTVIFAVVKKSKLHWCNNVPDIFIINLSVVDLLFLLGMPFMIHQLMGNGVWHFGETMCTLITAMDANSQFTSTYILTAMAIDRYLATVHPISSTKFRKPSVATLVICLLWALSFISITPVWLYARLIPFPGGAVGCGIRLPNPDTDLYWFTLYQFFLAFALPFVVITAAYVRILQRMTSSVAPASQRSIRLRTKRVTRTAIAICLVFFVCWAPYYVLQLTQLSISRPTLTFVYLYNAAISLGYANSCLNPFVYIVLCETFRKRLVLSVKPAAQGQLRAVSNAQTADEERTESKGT
Chain of Cytochrome P450 2C19 (P33261 whole entry): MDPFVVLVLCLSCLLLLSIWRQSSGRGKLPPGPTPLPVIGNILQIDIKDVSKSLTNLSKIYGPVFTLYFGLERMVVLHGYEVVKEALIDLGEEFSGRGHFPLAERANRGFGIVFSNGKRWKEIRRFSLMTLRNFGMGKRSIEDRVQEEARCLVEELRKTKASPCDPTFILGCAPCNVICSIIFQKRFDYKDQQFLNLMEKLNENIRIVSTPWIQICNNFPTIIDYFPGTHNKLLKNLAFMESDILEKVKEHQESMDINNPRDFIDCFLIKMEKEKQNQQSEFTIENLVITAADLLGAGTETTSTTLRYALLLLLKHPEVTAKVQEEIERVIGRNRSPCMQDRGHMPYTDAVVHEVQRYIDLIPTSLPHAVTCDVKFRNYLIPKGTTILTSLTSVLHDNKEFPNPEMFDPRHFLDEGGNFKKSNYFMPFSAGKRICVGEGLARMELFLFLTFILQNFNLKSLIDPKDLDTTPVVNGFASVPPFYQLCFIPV
Chain of G-protein coupled receptor 183 (P32249 whole entry): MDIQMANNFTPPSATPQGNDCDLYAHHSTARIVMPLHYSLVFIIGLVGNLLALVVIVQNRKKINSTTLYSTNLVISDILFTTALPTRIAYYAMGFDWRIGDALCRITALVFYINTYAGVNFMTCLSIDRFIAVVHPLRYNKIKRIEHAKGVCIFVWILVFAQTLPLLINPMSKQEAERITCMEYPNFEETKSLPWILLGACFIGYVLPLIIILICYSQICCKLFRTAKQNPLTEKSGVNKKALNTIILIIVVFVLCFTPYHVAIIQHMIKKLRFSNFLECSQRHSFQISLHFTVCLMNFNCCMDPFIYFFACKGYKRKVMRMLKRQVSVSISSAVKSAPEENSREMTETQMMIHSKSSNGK
Chain of Neuropeptides B/W receptor type 1 (P48145 whole entry): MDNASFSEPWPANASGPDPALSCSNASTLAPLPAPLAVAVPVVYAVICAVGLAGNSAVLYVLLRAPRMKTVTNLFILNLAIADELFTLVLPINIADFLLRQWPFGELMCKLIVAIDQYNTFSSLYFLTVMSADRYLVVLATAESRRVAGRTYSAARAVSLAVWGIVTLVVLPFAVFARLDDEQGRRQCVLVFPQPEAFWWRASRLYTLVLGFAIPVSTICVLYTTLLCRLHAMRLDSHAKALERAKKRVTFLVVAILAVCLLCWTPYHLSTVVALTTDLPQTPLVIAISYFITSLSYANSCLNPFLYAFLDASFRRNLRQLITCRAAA
Chain of Caspase-6 (P55212 24-179 limits assumed): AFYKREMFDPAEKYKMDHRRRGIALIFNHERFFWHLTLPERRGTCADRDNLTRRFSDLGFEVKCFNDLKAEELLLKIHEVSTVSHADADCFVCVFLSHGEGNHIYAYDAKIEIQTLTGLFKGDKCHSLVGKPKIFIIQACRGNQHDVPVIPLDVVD
Chain of Caspase-6 (P55212 194-293 limits assumed): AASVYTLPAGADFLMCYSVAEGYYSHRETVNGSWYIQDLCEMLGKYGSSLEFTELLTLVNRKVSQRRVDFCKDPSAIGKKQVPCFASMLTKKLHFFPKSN

For `COc1ccccc1NC(=O)N1CCCCN2[C@@H](CO)[C@@H](c3ccc(C#CC4CC4)cc3)[C@@H]2C1`, the AC50 [1] was 9.69 µM (active) and the AC50 [2] was 1.03 µM (active).

With `CCCn1c(=O)[nH]c2nc(-c3ccc(S(=O)(=O)O)cc3)[nH]c2c1=O` the AC50 (Cytochrome P450 2C19) was 7.94 µM (inconclusive).

For `CCO/C(O)=C1/C(C)=Nc2ccccc2N=C1NS(=O)(=O)c1cc(C(=O)O)ccc1Cl`, the AC50 (Caspase-6) was 28.8 µM (active).

With `O=C(NCCOc1ccccc1F)c1ccccc1SCc1ccc(F)cc1` the IC50 [3] was 2.2 µM (active), the EC50 [4] was > 53 µM (inactive) and the IC50 [5] was > 47.1 µM (inactive).

For `OC1(c2ccc(F)cc2)CC2CCC(C1)N2Cc1nnnn1C1CCCCC1` (centres undefined), the IC50 [6] was 24 µM (not active) and the IC50 [7] was 28.3 µM (not active).

In the case of `Cc1cc(CN2CCN(C(=O)/C=C/c3ccc(Br)cc3)CC2)ccc1F`, the IC50 [8] was 1.5 nM (active).

For `COc1cccc(-n2c(SCC(=O)Nc3ccc4c(c3)CCC4)nc3ccccc3c2=O)c1`, the IC50 (Prothrombin) was > 50 µM (not active), the CC50 (Vero [9]) was > 66.6 µM (active) and the CC50 (Vero [10]) was > 100 µM (active).

In the case of `O=C(NC1=C(N2CCCCC2)C(=O)c2ccccc2C1=O)c1ccccc1`, the AC50 [11] was 54.4 µM (active) and the AC50 [12] was > 70 µM (inactive).

With `COc1ccc(C2CC(c3ccccc3)n3nc(NC(=O)c4cccs4)nc3N2)cc1` (centres undefined) the IC50 [13] was 6.96 µM (active), the IC50 [14] was > 100 µM (active) and the IC50 (Protein Tat) was > 100 µM (active). The CC50 [15] was > 40 µM (active).
